Assay results as given in paper PMC12751012, “Nanoscale Direct-to-Biology Optimization and Structural Insights into Selective S. aureus TrmD Inhibitors” (Journal of Medicinal Chemistry, 2025).

Target: T1, S. aureus TrmD (Staphylococcus aureus, UniProt Q2FZ43)
T1 construct: made in house; host or cells: E. coli BL21
T1 sequence (Q2FZ43 1-245): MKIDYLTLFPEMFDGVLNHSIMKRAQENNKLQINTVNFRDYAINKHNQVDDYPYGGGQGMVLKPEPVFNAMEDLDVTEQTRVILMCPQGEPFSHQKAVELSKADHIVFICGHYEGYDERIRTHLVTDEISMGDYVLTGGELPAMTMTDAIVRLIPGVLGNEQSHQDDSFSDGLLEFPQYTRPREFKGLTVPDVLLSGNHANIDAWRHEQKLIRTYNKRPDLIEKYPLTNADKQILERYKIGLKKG
Test: nanoSAR direct-to-biology FP displacement screening of crude triazoles
Type: binding
Settings: crude triazole at 1 μM, assuming full conversion, 500 nM TrmD, 10 nM tracer 4; for inhibition at 1 µM: read-out: % displaced tracer
Summary of the method: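 S. aureus TrmD (500 nM) with tracer 4 (10 nM) in Tris/NaCl/MgCl2/glycerol buffer, pH 7.5, was challenged with unpurified triazoles from in situ CuAAC of alkyne 7 with a 320-member azide library.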

Work on `O=c1[nH]cnc2[nH]cc(-c3cn(Cc4cnn(-c5ccccc5)c4)nn3)c12` [Compound 01A02, O=C1NC=NC=2NC=C(C=3N=NN(C3)CC=4C=NN(c5ccccc5)C4)C12] yielded an inhibition at 1 µM of 81%.

In the case of `O=c1[nH]cnc2[nH]cc(-c3cn(-c4ccc5[nH]cnc5c4)nn3)c12` [Compound 03G06, O=C1NC=NC=2NC=C(C=3N=NN(c4cc5N=CNc5cc4)C3)C12], the inhibition at 1 µM is reported as 27%.

`C[C@@H]1CNC[C@H]1n1cc(-c2c[nH]c3nc[nH]c(=O)c23)nn1` [Compound 03B12, O=C1NC=NC=2NC=C(C=3N=NN(C3)[C@H]4[C@@H](C[NH2+]C4)C)C12] was tested, and the inhibition at 1 µM was 19%.

Compound `COc1ccnc(-n2cc(-c3c[nH]c4nc[nH]c(=O)c34)nn2)n1` [Compound 02A01, O=C1NC=NC=2NC=C(C=3N=NN(c4nc(OC)ccn4)C3)C12] has an inhibition at 1 µM of 19%.

With `O=C(NCCn1cc(-c2c[nH]c3nc[nH]c(=O)c23)nn1)C(F)(F)F` [Compound 02F11, FC(F)(F)C(=O)NCCN1N=NC(C=2C=3C(=O)NC=NC3NC2)=C1] the inhibition at 1 µM was 41%.

Work on `Cc1cc(C)cc(-n2cc(-c3c[nH]c4nc[nH]c(=O)c34)nn2)c1` [Compound 03B05, O=C1NC=NC=2NC=C(C=3N=NN(c4cc(cc(c4)C)C)C3)C12] yielded an inhibition at 1 µM of 24%.

`CC(C)(C)OC(=O)N1CCC[C@H](CCn2cc(-c3c[nH]c4nc[nH]c(=O)c34)nn2)CC1` [Compound 03F11, O=C(OC(C)(C)C)N1CC[C@@H](CCN2N=NC(C=3C=4C(=O)NC=NC4NC3)=C2)CCC1] showed an inhibition at 1 µM of 71%.

`CCc1nc(C)c(Cn2cc(-c3c[nH]c4nc[nH]c(=O)c34)nn2)o1` [Compound 01G02, O=C1NC=NC=2NC=C(C=3N=NN(C3)CC=4OC(=NC4C)CC)C12] showed an inhibition at 1 µM of 71%.

In the case of `CN1CC[C@@H](n2cc(-c3c[nH]c4nc[nH]c(=O)c34)nn2)C1=O` [Compound 03E02, O=C1NC=NC=2NC=C(C=3N=NN(C3)[C@H]4C(=O)N(CC4)C)C12], the inhibition at 1 µM is reported as 27%.

Compound `O=C(Cn1cc(-c2c[nH]c3nc[nH]c(=O)c23)nn1)Nc1ccccc1` [Compound 01A10, O=C1NC=NC=2NC=C(C=3N=NN(C3)CC(=O)Nc4ccccc4)C12] has an inhibition at 1 µM of 41%.

`C[C@@H](CN)n1cc(-c2c[nH]c3nc[nH]c(=O)c23)nn1` [Compound 03H12, O=C1NC=NC2=C1C(C3=CN([C@H](CN)C)N=N3)=CN2] was tested, and the “% displaced tracer” value was 20%.

For `O=c1[nH]cnc2[nH]cc(-c3cn(C[C@@H]4CC(F)(F)CO4)nn3)c12` [Compound 01A11, F[C@]1(F)CO[C@H](CN2N=NC(C=3C=4C(=O)NC=NC4NC3)=C2)C1], the inhibition at 1 µM was 44%.

`O=c1[nH]cnc2[nH]cc(-c3cn(CCCN4CCSCC4)nn3)c12` [Compound 02H07, S1CC[NH+](CC1)CCCN2N=NC(C=3C=4C(=O)NC=NC4NC3)=C2] gave an inhibition at 1 µM of 59%.

`COc1nc(OC)nc(-n2cc(-c3c[nH]c4nc[nH]c(=O)c34)nn2)n1` [Compound 03F05, O=C1NC=NC=2NC=C(C=3N=NN(c4nc(OC)nc(OC)n4)C3)C12] showed an inhibition at 1 µM of 33%.

`O=c1[nH]cnc2[nH]cc(-c3cn(CCCCCO)nn3)c12` [Compound 02B01, O=C1NC=NC=2NC=C(C=3N=NN(C3)CCCCCO)C12] was tested, and the inhibition at 1 µM was 27%.

Compound `Cc1cncc(CCn2cc(-c3c[nH]c4nc[nH]c(=O)c34)nn2)n1` [Compound 04C01, O=C1NC=NC=2NC=C(C=3N=NN(C3)CCc4nc(cnc4)C)C12] has an inhibition at 1 µM of 69%.

Compound `Cc1c[nH]nc1Cn1cc(-c2c[nH]c3nc[nH]c(=O)c23)nn1` [Compound 04G01, O=C1NC=NC=2NC=C(C=3N=NN(C3)CC4=NNC=C4C)C12] has an inhibition at 1 µM of 87%.

`O=c1[nH]cnc2[nH]cc(-c3cn(Cc4cccc5ccccc45)nn3)c12` [Compound 01F10, O=C1NC=NC=2NC=C(C=3N=NN(C3)Cc4c5c(ccc4)cccc5)C12] showed an inhibition at 1 µM of 84%.

`NCc1cccc(-n2cc(-c3c[nH]c4nc[nH]c(=O)c34)nn2)c1` [Compound 03G11, O=C1NC=NC=2NC=C(C=3N=NN(c4cc(ccc4)C[NH3+])C3)C12] gave an inhibition at 1 µM of 32%.

`O=c1[nH]cnc2[nH]cc(-c3cn(C[C@H](O)Cc4ccccc4)nn3)c12` [Compound 03D03, O=C1NC=NC=2NC=C(C=3N=NN(C3)C[C@H](O)Cc4ccccc4)C12] gave an inhibition at 1 µM of 39%.
